SMILES strings stand for the structures.

The target of this assay is T1, human S1P1 receptor (Homo sapiens, UniProt P21453).
T1 construct: expressed in transfected cells; membranes used
Put plainly: GTP γ35S binding assay for S1P1 activity. Type of assay: biochemical. The note with it: activity potency, S1P1 receptor from GTP γ35S binding; 5 μg membrane protein; test compounds 0.08 to 5,000 nM; 30 min at 25° C. On the procedure:
Compounds were synthesized and tested for S1P1 activity using the GTP γ^35S binding assay. These compounds may be assessed for their ability to activate or block activation of the human S1P1 receptor in cells stably expressing the S1P1 receptor.
GTP γ^35S binding was measured in the medium containing (mM) HEPES 25, pH 7.4, MgCl2 10, NaCl 100, dithitothreitol 0.5, digitonin 0.003%, 0.2 nM GTP γ^35S, and 5 μg membrane protein in a volume of 150 μl. Test compounds were included in the concentration range from 0.08 to 5,000 nM unless indicated otherwise. Membranes were incubated with 100 μM 5′-adenylylimmidodiphosphate for 30 min, and subsequently with 10 μM GDP for 10 min on ice. Drug solutions and membrane were mixed, and then reactions were initiated by adding GTP γ^35S and continued for 30 min at 25° C. Reaction mixtures were filtered over Whatman GF/B filters under vacuum, and washed three times with 3 mL of ice-cold buffer (HEPES 25, pH7.4, MgCl2 10 and NaCl 100). Filters were dried and mixed with scintillant, and counted for ^35S activity using a β-counter. Agonist-induced GTP γ^35S binding was obtained by subtracting that in the absence of agonist. Binding data were analyzed using a non-linear regression method. In case of antagonist assay, the reaction mixture contained 10 nM […] in the presence of test antagonist at concentrations ranging from 0.08 to 5000 nM.
(GTPγS is a poorly hydrolysed GTP analogue; its binding reports G protein activation.)

T1 sequence (P21453 whole entry): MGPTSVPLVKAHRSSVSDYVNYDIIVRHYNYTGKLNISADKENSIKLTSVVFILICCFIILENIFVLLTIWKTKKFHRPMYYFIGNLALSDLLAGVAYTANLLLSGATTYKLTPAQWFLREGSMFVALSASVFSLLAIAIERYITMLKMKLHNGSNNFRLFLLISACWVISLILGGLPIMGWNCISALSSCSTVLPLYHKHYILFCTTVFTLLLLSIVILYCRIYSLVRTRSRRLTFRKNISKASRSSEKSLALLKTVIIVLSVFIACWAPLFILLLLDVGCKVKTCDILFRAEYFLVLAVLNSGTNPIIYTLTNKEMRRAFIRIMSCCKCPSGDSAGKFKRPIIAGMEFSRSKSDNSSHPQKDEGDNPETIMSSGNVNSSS

What is called EC50 is the concentration at which the effect is half-maximal. Read a high EC50 as a less potent agent. The molecule `CCC(Sc1nnc(-c2ccc(CNCCCP(=O)(O)O)cc2)o1)c1cccc([N+](=O)[O-])c1` (centres unmarked) [Compound 16, (3-{[4-(5-{[1-(3-nitrophenyl)propyl]thio}-1,3,4-oxadiazol-2-yl)benzyl]amino}propyl)phosphonic acid] gave a concentration giving a half-maximal response (EC50) of 40 nM.

In the case of `Cc1ccc(-c2nnc(SCc3ccc(CNCCCP(=O)(O)O)cc3)o2)cc1C` [(3-{[4-({[5-(3,4-dimethylphenyl)-1,3,4-oxadiazol-2-yl]thio}methyl)benzyl]amino}propyl)phosphonic acid], the 50% effective concentration (EC50) stood at 805 nM.

Take `CCC(Sc1nnc(-c2ccc(CNCCCP(=O)(O)O)cc2C)o1)c1cccc([N+](=O)[O-])c1` (centres unmarked) [Compound 7, (3-{[3-methyl-4-(5-{[1-(3-nitrophenyl)propyl]thio}-1,3,4-oxadiazol-2-yl)benzyl]amino}propyl)phosphonic acid]: the 50% effective concentration (EC50) stood at 50 nM.

Turning to `Cc1cc(CNCCCP(=O)(O)O)sc1-c1nnc(SC(C)c2cccc([N+](=O)[O-])c2)o1` (centres unmarked) [Compound 27, [3-({[4-methyl-5-(5-{[1-(3-nitrophenyl)ethyl]sulfanyl}-1,3,4-oxadiazol-2-yl)thiophen-2-yl]methyl}amino)propyl]phosphonic acid], the response was half-maximal at 200 nM (EC50).

Take `Cc1ccc(CSc2nnc(-c3ccc(CNCCCP(=O)(O)O)cc3)o2)cc1C` [Compound 10, {3-[(4-{5-[(3,4-dimethylbenzyl)thio]-1,3,4-oxadiazol-2-yl}benzyl)amino]propyl}phosphonic acid]: the EC50 stood at 97 nM.

For the molecule `Cc1cc(CNCCCP(=O)(O)O)ccc1-c1nnc(SC(C)c2cccc([N+](=O)[O-])c2)o1` (centres unmarked) [Compound 6, (3-{[3-methyl-4-(5-{[1-(3-nitrophenyl)ethyl]thio}-1,3,4-oxadiazol-2-yl)benzyl]amino}propyl)phosphonic acid], the EC50 stood at 231 nM. This EC50 is about 2.4-fold higher than that of the molecule before.

For the molecule `CCc1cc(CNCCCP(=O)(O)O)ccc1-c1nnc(SC(C)c2cccc([N+](=O)[O-])c2)o1` (centres unmarked) [Compound 11, (3-{[3-ethyl-4-(5-{[1-(3-nitrophenyl)ethyl]thio}-1,3,4-oxadiazol-2-yl)benzyl]amino}propyl)phosphonic acid], the half-maximal effective concentration (EC50) amounted to 30 nM.

In turn, `O=[N+]([O-])c1cccc(CSc2nnc(-c3ccc(CNCCCP(=O)(O)O)cc3)o2)c1` [Compound 9, {3-[(4-{5-[(3-nitrobenzyl)thio]-1,3,4-oxadiazol-2-yl}benzyl)amino]propyl}phosphonic acid] showed a 50% effective concentration (EC50) of 1810 nM.

`O=P(O)(O)CCCNCc1ccc(-c2nnc(SCc3cccc(Cl)c3F)o2)cc1` [Compound 1, {3-[(4-{5-[(3-chloro-2-fluorobenzyl)thio]-1,3,4-oxadiazol-2-yl}benzyl)amino]propyl}phosphonic acid] had a 50% effective concentration (EC50) of 853 nM.

For `Cc1ccc(-c2nnc(SC(C)c3ccc(CNCCCP(=O)(O)O)cc3)o2)cc1C` (centres unmarked) [(3-{[4-(1-{[5-(3,4-dimethylphenyl)-1,3,4-oxadiazol-2-yl]thio}ethyl)benzyl]amino}propyl)phosphonic acid], a half-maximal response (EC50) required 888 nM. This EC50 and that of the molecule before are within 1.5-fold of each other.

On to `CCCC(Sc1nnc(-c2ccc(CNCCCP(=O)(O)O)cc2)o1)c1cccc(Cl)c1F` (centres unmarked) [Compound 15, (3-{[4-(5-{[1-(3-chloro-2-fluorophenyl)butyl]thio}-1,3,4-oxadiazol-2-yl)benzyl]amino}propyl)phosphonic acid], for which the EC50 was 1.8 nM.

The molecule `CCc1cc(CNCCCP(=O)(O)O)sc1-c1nnc(SC(C)c2cccc([N+](=O)[O-])c2)o1` (centres unmarked) [Compound 26, [3-({[4-ethyl-5-(5-{[1-(3-nitrophenyl)ethyl]sulfanyl}-1,3,4-oxadiazol-2-yl)thiophen-2-yl]methyl}amino)propyl]phosphonic acid] registered a concentration giving a half-maximal response (EC50) of 1260 nM.

`CC(Sc1nnc(-c2ccc(CNCCCP(=O)(O)O)cc2)o1)c1cccc([N+](=O)[O-])c1` (centres unmarked) [Compound 17, (3-{[4-(5-{[1-(3-nitrophenyl)ethyl]thio}-1,3,4-oxadiazol-2-yl)benzyl]amino}propyl)phosphonic acid] showed an EC50 of 382 nM.

`CCCC(Sc1nnc(-c2ccc(CNCCCP(=O)(O)O)cc2)o1)c1ccccc1` (centres unmarked) [Compound 14, {3-[(4-{5-[(1-phenylbutyl)thio]-1,3,4-oxadiazol-2-yl}benzyl)amino]propyl}phosphonic acid]: the half-maximal effective concentration (EC50) was found to be 1.5 nM.

Source of the values: US8729110B1, “2-thio-1,3,4-oxadiazoles derivatives as sphingosine-1 phosphate receptors modulators” (Allergan, Inc., priority 2012, dated 2014).
